Source: patent US8772480B2, “Inhibitors of PI3 kinase and/or mTOR” (priority 2009, dated 2014)

Key:
[1] = biological target: ProfilerPro Kinase Selectivity Assay Kit kinases (Homo sapiens, UniProt O14965); type: biochemical; conditions: AURORA A; 1 μM compound concentration
[2] = biological target: ProfilerPro Kinase Selectivity Assay Kit kinases (Homo sapiens, UniProt P06213); type: biochemical; conditions: INSR; 1 μM compound concentration
[3] = biological target: ProfilerPro Kinase Selectivity Assay Kit kinases (Homo sapiens, UniProt P11362); type: biochemical; conditions: FGFR1; 1 μM compound concentration
[4] = biological target: ProfilerPro Kinase Selectivity Assay Kit kinases (Homo sapiens, UniProt P12931); type: biochemical; conditions: SRC; 1 μM compound concentration
[5] = biological target: ProfilerPro Kinase Selectivity Assay Kit kinases (Homo sapiens, UniProt P23443); type: biochemical; conditions: p70S6K; 1 μM compound concentration
[6] = biological target: ProfilerPro Kinase Selectivity Assay Kit kinases (Homo sapiens, UniProt P24941); type: biochemical; conditions: CDK2; 1 μM compound concentration
[7] = biological target: ProfilerPro Kinase Selectivity Assay Kit kinases (Homo sapiens, UniProt P36888); type: biochemical; conditions: FLT3; 1 μM compound concentration
[8] = biological target: ProfilerPro Kinase Selectivity Assay Kit kinases (Homo sapiens, UniProt Q05513); type: biochemical; conditions: PKC zeta; 1 μM compound concentration
[9] = biological target: ProfilerPro Kinase Selectivity Assay Kit kinases (Homo sapiens, UniProt Q13627); type: biochemical; conditions: DYRK1a; 1 μM compound concentration
[10] = biological target: ProfilerPro Kinase Selectivity Assay Kit kinases (Homo sapiens, UniProt Q13976); type: biochemical; conditions: PKGa2; 1 μM compound concentration
[11] = biological target: ProfilerPro Kinase Selectivity Assay Kit kinases (Homo sapiens, UniProt Q15418); type: biochemical; conditions: RSK1; 1 μM compound concentration
[12] = biological target: ProfilerPro Kinase Selectivity Assay Kit kinases (Homo sapiens, UniProt Q9P1W9); type: biochemical; conditions: PIM2; 1 μM compound concentration
[13] = test system: ProfilerPro Kinase Selectivity Assay Kit kinases; type: biochemical; conditions: 1 μM compound concentration
[14] = biological target: PI3Kα (Homo sapiens (Human), UniProt P42336); conditions: read-out: PI3Kα AlphaScreen ® Ki
[15] = biological target: human mutant B-raf (HuBraf V600E) (Homo sapiens (Human), UniProt P15056, V600E); conditions: at 10 μM compound concentration; POC = 100 − percent inhibition
[16] = test system: phosphorylation of Akt at Serine 473 in U87 MG cells; test: cells; conditions: Homo sapiens, U-87 MG, 2 h, read-out: U87Cell IC50, pAkt (Ser 473), U87 MG cells, two hours with compound

PI3Kα, sequence (P42336 whole entry): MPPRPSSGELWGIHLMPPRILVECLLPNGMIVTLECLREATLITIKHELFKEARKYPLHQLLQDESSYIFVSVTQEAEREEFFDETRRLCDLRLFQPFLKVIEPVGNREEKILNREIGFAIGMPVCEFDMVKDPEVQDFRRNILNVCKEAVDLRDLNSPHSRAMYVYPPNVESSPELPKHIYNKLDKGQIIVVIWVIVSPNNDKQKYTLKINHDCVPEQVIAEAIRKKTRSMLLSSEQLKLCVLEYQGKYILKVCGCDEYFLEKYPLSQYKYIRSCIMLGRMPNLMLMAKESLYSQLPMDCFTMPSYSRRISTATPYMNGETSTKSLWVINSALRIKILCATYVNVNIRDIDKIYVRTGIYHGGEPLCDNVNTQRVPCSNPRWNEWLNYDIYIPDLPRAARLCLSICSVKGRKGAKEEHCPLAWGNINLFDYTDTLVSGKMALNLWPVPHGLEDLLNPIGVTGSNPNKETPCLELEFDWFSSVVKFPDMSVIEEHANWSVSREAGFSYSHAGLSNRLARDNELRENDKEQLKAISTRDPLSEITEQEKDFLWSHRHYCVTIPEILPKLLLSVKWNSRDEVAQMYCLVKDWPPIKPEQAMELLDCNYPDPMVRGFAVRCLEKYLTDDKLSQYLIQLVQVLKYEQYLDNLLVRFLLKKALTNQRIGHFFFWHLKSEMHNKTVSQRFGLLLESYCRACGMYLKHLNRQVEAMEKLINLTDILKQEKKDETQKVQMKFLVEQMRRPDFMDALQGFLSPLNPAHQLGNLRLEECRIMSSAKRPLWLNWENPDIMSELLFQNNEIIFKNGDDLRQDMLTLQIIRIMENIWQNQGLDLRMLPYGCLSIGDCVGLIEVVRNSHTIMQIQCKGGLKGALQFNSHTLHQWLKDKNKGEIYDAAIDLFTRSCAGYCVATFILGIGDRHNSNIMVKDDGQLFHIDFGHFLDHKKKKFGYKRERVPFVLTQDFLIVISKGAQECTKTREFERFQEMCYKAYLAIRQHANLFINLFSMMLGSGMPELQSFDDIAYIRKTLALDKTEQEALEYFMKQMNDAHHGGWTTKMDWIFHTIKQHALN
PI3Kα, sequence (P27986 whole entry partner): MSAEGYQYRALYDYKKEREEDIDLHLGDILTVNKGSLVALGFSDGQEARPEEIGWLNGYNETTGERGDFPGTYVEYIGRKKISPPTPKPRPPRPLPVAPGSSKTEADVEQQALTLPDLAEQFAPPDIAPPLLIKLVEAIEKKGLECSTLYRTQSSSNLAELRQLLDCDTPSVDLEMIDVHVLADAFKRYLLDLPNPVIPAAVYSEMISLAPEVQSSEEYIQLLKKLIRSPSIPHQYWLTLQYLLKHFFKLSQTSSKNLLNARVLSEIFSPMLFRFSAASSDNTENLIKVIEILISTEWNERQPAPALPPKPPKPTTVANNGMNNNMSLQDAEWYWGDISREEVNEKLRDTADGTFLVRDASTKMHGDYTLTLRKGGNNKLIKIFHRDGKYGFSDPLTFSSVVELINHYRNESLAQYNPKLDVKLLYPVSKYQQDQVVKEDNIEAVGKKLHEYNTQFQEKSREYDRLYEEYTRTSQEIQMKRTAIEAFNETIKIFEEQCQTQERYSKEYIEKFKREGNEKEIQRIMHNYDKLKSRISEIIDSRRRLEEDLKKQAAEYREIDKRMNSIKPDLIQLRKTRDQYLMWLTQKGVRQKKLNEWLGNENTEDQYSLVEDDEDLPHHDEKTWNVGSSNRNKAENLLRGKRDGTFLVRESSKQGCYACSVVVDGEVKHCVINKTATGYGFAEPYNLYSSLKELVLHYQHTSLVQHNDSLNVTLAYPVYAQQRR
ProfilerPro Kinase Selectivity Assay Kit kinases (Homo sapiens, UniProt P36888), sequence (P36888 27-993 limits assumed): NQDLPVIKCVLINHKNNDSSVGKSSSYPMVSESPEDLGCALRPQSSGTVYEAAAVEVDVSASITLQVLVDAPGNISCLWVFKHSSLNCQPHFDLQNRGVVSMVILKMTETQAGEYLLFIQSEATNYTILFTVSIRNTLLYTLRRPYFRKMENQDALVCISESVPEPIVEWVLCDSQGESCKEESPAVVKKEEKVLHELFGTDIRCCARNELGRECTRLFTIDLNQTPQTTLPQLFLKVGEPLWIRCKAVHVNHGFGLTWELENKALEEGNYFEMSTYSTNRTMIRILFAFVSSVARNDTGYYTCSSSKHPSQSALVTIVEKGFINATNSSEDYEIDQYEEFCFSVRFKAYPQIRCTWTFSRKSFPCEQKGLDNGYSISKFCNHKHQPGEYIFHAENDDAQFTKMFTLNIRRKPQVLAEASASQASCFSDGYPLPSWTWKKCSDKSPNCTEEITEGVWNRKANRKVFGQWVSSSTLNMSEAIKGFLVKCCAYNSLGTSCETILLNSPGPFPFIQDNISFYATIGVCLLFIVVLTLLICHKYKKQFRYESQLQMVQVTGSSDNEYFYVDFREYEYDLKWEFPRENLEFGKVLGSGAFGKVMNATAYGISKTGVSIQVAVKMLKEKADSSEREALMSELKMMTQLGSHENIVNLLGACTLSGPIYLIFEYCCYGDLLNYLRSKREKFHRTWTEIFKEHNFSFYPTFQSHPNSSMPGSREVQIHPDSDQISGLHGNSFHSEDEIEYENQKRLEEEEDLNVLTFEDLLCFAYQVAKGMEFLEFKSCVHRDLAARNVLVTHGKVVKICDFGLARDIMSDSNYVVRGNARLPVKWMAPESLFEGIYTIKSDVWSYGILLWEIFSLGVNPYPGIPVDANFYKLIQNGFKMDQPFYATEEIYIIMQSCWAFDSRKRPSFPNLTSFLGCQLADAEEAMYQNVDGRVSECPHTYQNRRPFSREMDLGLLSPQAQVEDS
ProfilerPro Kinase Selectivity Assay Kit kinases (Homo sapiens, UniProt P12931), sequence (P12931 2-536 limits assumed): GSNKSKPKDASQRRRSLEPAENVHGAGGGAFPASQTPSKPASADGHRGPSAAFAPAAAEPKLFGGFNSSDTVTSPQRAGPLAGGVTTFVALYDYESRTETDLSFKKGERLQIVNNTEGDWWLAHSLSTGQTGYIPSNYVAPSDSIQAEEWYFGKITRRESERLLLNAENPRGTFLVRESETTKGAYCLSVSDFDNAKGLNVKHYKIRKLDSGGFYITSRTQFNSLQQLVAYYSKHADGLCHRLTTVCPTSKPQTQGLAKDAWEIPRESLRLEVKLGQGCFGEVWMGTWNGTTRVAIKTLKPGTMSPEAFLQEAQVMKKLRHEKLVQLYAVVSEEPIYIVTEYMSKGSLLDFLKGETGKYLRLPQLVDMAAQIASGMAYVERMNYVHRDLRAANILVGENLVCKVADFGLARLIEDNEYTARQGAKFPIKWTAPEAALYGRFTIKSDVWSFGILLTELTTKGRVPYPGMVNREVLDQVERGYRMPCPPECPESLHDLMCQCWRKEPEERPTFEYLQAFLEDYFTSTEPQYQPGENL
human mutant B-raf (HuBraf V600E), sequence (P15056 whole entry V600E): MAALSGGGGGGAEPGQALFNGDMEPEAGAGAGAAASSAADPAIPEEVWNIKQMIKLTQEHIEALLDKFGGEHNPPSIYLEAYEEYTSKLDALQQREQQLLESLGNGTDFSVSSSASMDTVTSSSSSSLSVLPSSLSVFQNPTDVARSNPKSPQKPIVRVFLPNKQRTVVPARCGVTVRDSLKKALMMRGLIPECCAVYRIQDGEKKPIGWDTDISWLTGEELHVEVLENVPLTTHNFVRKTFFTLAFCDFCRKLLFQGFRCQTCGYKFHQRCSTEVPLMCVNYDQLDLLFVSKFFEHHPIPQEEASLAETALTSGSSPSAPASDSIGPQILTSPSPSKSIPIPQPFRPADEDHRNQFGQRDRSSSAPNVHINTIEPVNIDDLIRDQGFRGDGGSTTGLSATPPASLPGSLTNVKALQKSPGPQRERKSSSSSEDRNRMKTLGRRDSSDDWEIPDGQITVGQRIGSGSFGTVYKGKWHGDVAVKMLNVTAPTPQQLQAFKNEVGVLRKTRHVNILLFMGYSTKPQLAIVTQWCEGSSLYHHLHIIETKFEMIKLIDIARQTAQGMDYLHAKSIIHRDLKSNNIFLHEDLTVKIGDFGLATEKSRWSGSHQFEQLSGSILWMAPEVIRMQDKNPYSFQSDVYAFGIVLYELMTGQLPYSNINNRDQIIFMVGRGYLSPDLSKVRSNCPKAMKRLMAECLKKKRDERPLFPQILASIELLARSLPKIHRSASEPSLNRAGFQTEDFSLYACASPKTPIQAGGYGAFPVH
ProfilerPro Kinase Selectivity Assay Kit kinases (Homo sapiens, UniProt P11362), sequence (P11362 22-822 limits assumed): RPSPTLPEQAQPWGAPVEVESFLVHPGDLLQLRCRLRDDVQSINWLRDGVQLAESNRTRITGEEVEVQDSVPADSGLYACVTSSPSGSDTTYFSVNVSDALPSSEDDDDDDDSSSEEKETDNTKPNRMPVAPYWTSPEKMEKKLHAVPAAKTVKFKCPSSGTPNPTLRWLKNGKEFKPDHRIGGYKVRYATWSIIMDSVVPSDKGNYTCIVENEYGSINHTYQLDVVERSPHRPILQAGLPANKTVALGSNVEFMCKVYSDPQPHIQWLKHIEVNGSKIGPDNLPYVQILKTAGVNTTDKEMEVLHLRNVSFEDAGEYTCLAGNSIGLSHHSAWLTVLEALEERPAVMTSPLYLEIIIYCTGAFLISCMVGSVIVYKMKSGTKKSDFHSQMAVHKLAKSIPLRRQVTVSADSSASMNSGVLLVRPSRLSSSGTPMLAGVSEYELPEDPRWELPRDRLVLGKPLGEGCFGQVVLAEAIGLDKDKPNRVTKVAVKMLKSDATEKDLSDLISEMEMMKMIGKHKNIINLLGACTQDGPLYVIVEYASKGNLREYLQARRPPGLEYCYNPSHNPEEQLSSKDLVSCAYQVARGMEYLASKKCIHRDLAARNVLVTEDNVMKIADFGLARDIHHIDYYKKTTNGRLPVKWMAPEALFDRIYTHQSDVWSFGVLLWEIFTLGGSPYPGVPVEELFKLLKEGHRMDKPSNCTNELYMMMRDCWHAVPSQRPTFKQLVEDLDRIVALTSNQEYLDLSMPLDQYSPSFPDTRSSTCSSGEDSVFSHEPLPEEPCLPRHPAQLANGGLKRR

POC (Percent of control) AURORA A [1] [POC]	POC (Percent of control) INSR [2] [POC]	POC (Percent of control) FGFR1 [3] [POC]	POC (Percent of control) SRC [4] [POC]	POC (Percent of control) p70S6K [5] [POC]	POC (Percent of control) CDK2 [6] [POC]	POC (Percent of control) FLT3 [7] [POC]	POC (Percent of control) PKC zeta [8] [POC]	POC (Percent of control) DYRK1a [9] [POC]	POC (Percent of control) PKGa2 [10] [POC]	POC (Percent of control) RSK1 [11] [POC]	POC (Percent of control) PIM2 [12] [POC]	POC (Percent of control) AMPK [13] [POC]	POC (Percent of control) CAMK2 [13] [POC]	POC (Percent of control) PKC beta2 [13] [POC]	POC (Percent of control) TAK1 [13] [POC]	Ki [14] [µM]	Mutant B-raf HTRF Assay POC Mean n = 2 [15]	IC50 [16] [µM]	SMILES
24	88	51	23	91	90	25	98	66	93	87	105	57	84	94	90	5.62	7% of Control (POC)	2.37	c1cnc(Nc2cccc3[nH]ccc23)c(-c2ncnc3[nH]cnc23)c1 [Example 19, N-(3-(9H-Purin-6-yl)Pyridin-2-yl)-1H-Indol-4-Amine]
100	102	99	103	97	101	99	110	93	98	103	99	91	103	94	99	0.008	92% of Control (POC)	0.03	Cc1nc(N)nc(-c2cc(CN3CCN(S(C)(=O)=O)CC3)cnc2Nc2cccc(O)c2)n1 [Example 30, 3-(3-(4-Amino-6-Methyl-1,3,5-Triazin-2-yl)-5-((4-(Methyl Sulfonyl)Piperazin-1-yl)Methyl)Pyridin-2-Ylamino)Phenol]
31	98	98	96	90	97	99	198	96	95	100	99	91	105	96	98	0.13	68% of Control (POC)	0.079	Cc1cnc(Nc2cccc3[nH]ccc23)c(-c2nc(C)nc(N)n2)c1 [Example 46, N-(3-(4-Amino-6-Methyl-1,3,5-Triazin-2-yl)-5-Methylpyridin-2-yl)-1H-Indol-4-Amine]
85	99	94	79	60	93	89	102	82	80	105	104	87	126	100	106	0.036	91% of Control (POC)	0.197	Cc1cnc(Nc2cccc3[nH]ncc23)c(-c2nc(C)nc(N)n2)c1 [Example 47, N-(3-(4-Amino-6-Methyl-1,3,5-Triazin-2-yl)-5-Methylpyridine-2-yl)-1H-Indazol-4-Amine]
102	96	99	99	98	96	122	94	100	92	100	92	100	106	94	98	0.011	111% of Control (POC)	0.089	CCc1cnc(Nc2ccc(OC)nc2)c(-c2nc(C)nc3[nH]cnc23)c1 [Example 74, 5-ethyl-N-(6-methoxypyridin-3-yl)-3-(2-methyl-9H-purin-6-yl)pyridin-2-amine]
108	97	97	101	89	96	95	109	88	87	99	93	91	108	94	93	0.042	102% of Control (POC)	0.146	COc1ccc(Nc2ncc(CN3CCN(C(C)=O)CC3)cc2-c2nc(C)nc3[nH]cnc23)cn1 [Example 89, 1-(4-((6-(6-methoxypyridin-3-ylamino)-5-(2-methyl-9H-purin-6-yl)pyridin-3-yl)methyl)piperazin-1-yl)ethanone]
